{
  "source": "paper PMC7999182",
  "about": "“Interaction of Remdesivir with Clinically Relevant Hepatic Drug Uptake Transporters” (Pharmaceutics, 2021)",
  "key": {"[1]": {"molecular_target": "T1, OATP2B1 (Homo sapiens, UniProt O94956)", "T1 construct": "expressed in transfected cells", "T1 sequence (O94956 1-709)": "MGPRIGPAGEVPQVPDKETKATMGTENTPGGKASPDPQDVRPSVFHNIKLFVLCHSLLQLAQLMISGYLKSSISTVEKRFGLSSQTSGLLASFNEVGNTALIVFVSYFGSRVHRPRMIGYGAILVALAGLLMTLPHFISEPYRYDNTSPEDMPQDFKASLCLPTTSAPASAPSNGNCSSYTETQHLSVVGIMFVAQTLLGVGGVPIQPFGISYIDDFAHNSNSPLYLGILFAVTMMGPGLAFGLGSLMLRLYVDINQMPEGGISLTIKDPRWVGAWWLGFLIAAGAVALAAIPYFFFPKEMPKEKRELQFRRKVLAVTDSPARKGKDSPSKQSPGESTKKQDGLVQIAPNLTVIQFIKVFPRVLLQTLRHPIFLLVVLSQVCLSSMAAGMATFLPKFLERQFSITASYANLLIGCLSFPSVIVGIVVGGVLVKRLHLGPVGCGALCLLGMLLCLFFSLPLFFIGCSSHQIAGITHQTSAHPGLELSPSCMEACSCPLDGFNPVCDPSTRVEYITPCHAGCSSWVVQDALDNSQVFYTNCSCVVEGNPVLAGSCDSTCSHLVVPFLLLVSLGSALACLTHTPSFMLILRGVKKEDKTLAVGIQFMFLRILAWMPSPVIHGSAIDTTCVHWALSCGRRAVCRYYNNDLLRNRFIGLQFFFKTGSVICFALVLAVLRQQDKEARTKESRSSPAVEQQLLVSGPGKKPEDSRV", "test": "Remdesivir uptake into HEK cells stably expressing OATP2B1 vs vector control", "assay_type": "in vitro ADME", "conditions": "5 µM remdesivir, 10 min, transporter-expressing vs control HEK cells", "excerpt": "(§1) Generation, cultivation and characterization of human embryonic kidney (HEK) cells stably expressing OATP1B1 refseq (=OATP1B1*1a), OATP1B1*1b, OATP1B1*5 and OATP1B1*15 [18], OATP1B3 [19], OATP2B1 [13] and OCT1 [20] have been described previously. OATP1B1 cells were cultivated in minimal essential medium (Life Technologies, Paisley, UK) and OATP1B3, OATP2B1 and OCT1 cells were cultivated in Dulbecco’s modified Eagle medium (Sigma, Darmstadt, Germany). Cultivation media were supplemented with 10% fetal calf serum, 100 U/mL penicillin and 100 µg/mL streptomycin. Cells were grown at 37 °C and 5% CO2. Functionality of the cells was confirmed by measuring uptake of prototypic substrates (see Section 2.3 and supplementary material).\nUptake assays were conducted at 37 °C according to previously described methods. For this, cells were seeded in 24-well plates (320,000 cells/well) and cultured for 2 days. Cells were then incubated for a further 24 h in culture medium with 5 mM butyrate (OATP1B3, OATP2B1, OCT1) or 10 mM butyrate (OATP1B1) to increase protein levels of recombinant transporters. […]\n(§2) Remdesivir was determined by UHPLC-MS-MS analysis on an Agilent 1290 infinity UHPLC system coupled to an Agilent 6495B triple quadrupole mass spectrometer (Agilent, Waldbronn, Germany) similar to a recently published method. […]"}, "[2]": {"molecular_target": "T2, OATP1B1*15 (Homo sapiens, UniProt Q9Y6L6, N130D/V174A)", "T2 construct": "expressed in transfected cells", "T2 sequence (Q9Y6L6 1-691 N130D/V174A)": "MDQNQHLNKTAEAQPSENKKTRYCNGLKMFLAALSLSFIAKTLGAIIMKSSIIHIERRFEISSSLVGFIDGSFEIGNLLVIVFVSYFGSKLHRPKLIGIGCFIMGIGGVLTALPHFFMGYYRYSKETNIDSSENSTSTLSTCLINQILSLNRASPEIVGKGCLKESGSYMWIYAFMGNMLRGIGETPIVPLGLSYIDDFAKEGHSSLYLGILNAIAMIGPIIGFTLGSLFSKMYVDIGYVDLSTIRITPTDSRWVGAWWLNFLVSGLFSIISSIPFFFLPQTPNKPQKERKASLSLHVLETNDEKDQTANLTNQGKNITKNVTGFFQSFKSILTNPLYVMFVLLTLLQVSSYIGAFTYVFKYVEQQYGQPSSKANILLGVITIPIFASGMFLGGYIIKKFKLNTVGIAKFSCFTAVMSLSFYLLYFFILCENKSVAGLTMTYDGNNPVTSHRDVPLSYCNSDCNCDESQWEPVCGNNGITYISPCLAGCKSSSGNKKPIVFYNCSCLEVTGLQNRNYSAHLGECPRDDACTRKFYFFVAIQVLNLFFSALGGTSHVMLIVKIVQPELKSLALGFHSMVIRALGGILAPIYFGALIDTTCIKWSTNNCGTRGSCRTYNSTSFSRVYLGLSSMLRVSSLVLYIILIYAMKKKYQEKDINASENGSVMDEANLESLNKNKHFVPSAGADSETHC", "test": "Remdesivir uptake into HEK cells stably expressing OATP1B1*15 vs vector control", "assay_type": "in vitro ADME", "conditions": "10 min", "excerpt": "as §1\nUptake assays were conducted at 37 °C according to previously described methods. For this, cells were seeded in 24-well plates (320,000 cells/well) and cultured for 2 days. Cells were then incubated for a further 24 h in culture medium with 5 mM butyrate (OATP1B3, OATP2B1, OCT1) or 10 mM butyrate (OATP1B1) to increase protein levels of recombinant transporters. Before the uptake experiments, cells were washed with the respective pre-warmed (37 °C) uptake buffer. The compositions of the uptake buffers were as follows: for OATP1B1, OATP1B3, OATP2B1: 142 mM NaCl, 12.5 mM hydroxyethylpiperazine ethanesulfonic acid, 5 mM KCl, 1 mM KH2PO4, 1.5 mM CaCl2, 1.2 mM MgSO4, 5 mM glucose, pH 7.3; for OCT1: 145 mM NaCl, 5 mM hydroxyethylpiperazine ethanesulfonic acid, 3 mM KCl, 1 mM CaCl2, 0.5 mM MgCl2, 5 mM glucose, pH 7.4. Uptake was initiated by replacing this solution with uptake buffer containing different concentrations of remdesivir as indicated. […]\nas §2"}},
  "data": [
    {"molecule": "CCC(CC)COC(=O)[C@H](C)N[P@](=O)(OC[C@H]1O[C@@](C#N)(c2ccc3c(N)ncnn23)[C@H](O)[C@@H]1O)Oc1ccccc1", "note": "[Remdesivir]", "values": [
      {"measurement": "Remdesivir uptake ratio", "setting": "[1]", "result": 1.4},
      {"measurement": "Uptake vs vector-transfected control cells", "setting": "[2]; 0.5 µM remdesivir", "result": "significantly lower uptake"},
      {"measurement": "Accumulation vs vector-transfected control cells", "setting": "[2]; 5 µM remdesivir", "result": "moderately higher"},
      {"measurement": "Accumulation vs vector-transfected control cells", "setting": "[2]; 10 and 50 µM remdesivir", "result": "moderately higher"}
    ]}
  ]
}
